# From patent US8268809B2, “Kinase inhibitors for preventing or treating pathogen infection and method of use thereof” (priority 2006, dated 2012)
# Entries after “also recorded” stand apart in the source; their conditions may differ.
# System: vaccinia virus
# Type: cell-based
# For VACCINIA PLAQUE ASSAY 2 in this document: test concentration or dose not given here.
Compound,Class category of infected monolayers in plaque assay,VACCINIA PLAQUE ASSAY 2,VACCINIA Plaque Assay,"Plaque phenotype due to drug treatment (FIGS. 1, 2, 4)"
CCOC(=O)c1ccc(-c2ccc3c(-c4ccc(C(=O)OCC)cc4)n[nH]c3n2)cc1 [APcK-48],Class III,SMALL PLAQUES,PINPOINT PLAQUES,–
O=C(NCCO)c1cccc(-c2cnc3c(NCc4cccs4)nccn23)c1 [LG2-98],Class III,PINPOINTS,"SMALL PLAQUES, WITH TAILS",–
CC(=O)Nc1ccc(-c2ccc3c(-c4ccc(Cl)cc4Cl)n[nH]c3n2)cc1 [APcK-26],Class III,SMALL PLAQUES,PINPOINT PLAQUES,pinpoint plaque formations; also recorded: pinpoint plaques
Cn1c(=O)c(-c2c(Cl)cccc2Cl)cc2cnc(Nc3ccc(O)cc3)nc21 [YYA190],–,–,"CPE (MONO- LAYER NOT INFECTED WITH VV; DRUG DE- STROYED MONO- LAYER, THOUGH)",–
CC(C)c1ccc(Nc2nccn3c(Br)cnc23)cc1 [LG2-60],–,NO PLAQUES,–,–
"CN1CCOc2cc(/C=C3\SC(=O)NC3=O)ccc21 [AS-605091, reference compound]",Class III,PINPOINT PLAQUES,SMALL PLAQUES,–
CC(=O)Nc1ccc(-c2ccc3c(-c4ccc(Br)cc4)n[nH]c3n2)cc1 [APcK-27],Class III,SMALL PLAQUES,PINPOINT PLAQUES,pinpoint plaque formations; also recorded: pinpoint plaques
COc1cc(C(=O)Nc2cccc(-c3ccc4nnc(-c5ccccc5)n4n3)c2)cc(OC)c1OC [YYB21],–,–,–,damaged monolayer
"O=C1NC(=O)/C(=C/c2ccc3c(c2)OC(F)(F)O3)S1 [AS-604850, reference compound]",Class III,NO PLAQUES,NO PLAQUES,–
CCc1nnc2ccc(-c3cccc(NC(=O)c4ccc(OC)c(OC)c4)c3)nn12 [YYB41],Class II,SMALL PLAQUES,SMALL PLAQUES,–
Fc1ccc(CNc2nccn3c(Br)cnc23)cc1 [LG2-91],Class III,NO PLAQUES,NO PLAQUES,no pinpoint plaque formed; also recorded: no plaques
CC(=O)Nc1cccc(-c2ccc3c(-c4ccc(Br)cc4F)n[nH]c3n2)c1 [APcK-41],–,NO PLAQUES,–,–
O=C(c1ccccc1)c1ccc(-c2ccc3c(-c4ccc(Cl)c(F)c4)n[nH]c3n2)cc1 [APcK-35],Class III,NO PLAQUES,"SMALL PLAQUES, NO COMETS",–
CCOC(=O)c1ccc(-c2n[nH]c3nc(-c4ccc(NC(C)=O)cc4)ccc23)cc1 [APcK-19],–,SMALL PLAQUES,–,–
O=C(Nc1cccc(-c2ccc(Cl)nn2)c1)Oc1ccccc1 [LG2-111],–,–,PINPOINT PLAQUES,–
COc1ccccc1Nc1cc(-c2ccc(NC(C)=O)cc2)ncn1 [Eph2_wbz 206],Class II,SMALL PLAQUES,"SMALL PLAQUES, COMETS?",small plaques with comets
COc1ccccc1NS(=O)(=O)c1cccc(Nc2cc(-c3ccc(C(F)(F)F)cc3)ncn2)c1 [Eph2_wbz 107],Class II,SMALLER PLAQUES THAN WT,SMALLER PLAQUES THAN WT,–
COc1ccccc1NS(=O)(=O)c1cccc(Nc2cc(-c3ccc(C(=O)O)cc3)ncn2)c1 [Eph2_wbz 104],Class III,SLIGHTLY SMALLER PLAQUES,NO PLAQUES,–
O=C(Nc1cccc(-c2ccc(Cl)nn2)c1)c1cccc([N+](=O)[O-])c1 [YYB19],Class III,NO PLAQUES,PINPOINT PLAQUES,–

Compound,Class category of infected monolayers in plaque assay,VACCINIA PLAQUE ASSAY 2,VACCINIA Plaque Assay,"Plaque phenotype due to drug treatment (FIGS. 1, 2, 4)"
Cc1ccc(NC(=O)c2ccc(CN3CCN(CCO)CC3)cc2)cc1Nc1nccc(-c2cccnc2)n1 [STI-OH],Class III,SMALL PLAQUES,PINPOINT PLAQUES,–
COc1cc(OC)cc(-c2ccc3c(-c4ccc(F)cc4)n[nH]c3n2)c1 [APcK-110],Class II,SMALL PLAQUES,"SMALL PLAQUES, SEE LOTS OF SATELLITE PLAQUES",–
Cc1ccc(-n2c(=O)[nH]c3c(C(N)=O)nc(C4CCCCC4)nc32)cc1 [dm-I-203],Class III,PINPOINTS,SMALL PLAQUES,–
COc1ccccc1NS(=O)(=O)c1cccc(Nc2cc(-c3ccc(C(C)=O)cc3)ncn2)c1 [Eph2_wbz 110],Class III,PINPOINT,PINPOINT PLAQUES,pinpoint plaque formations; also recorded: pinpoint plaques
CCOC(=O)c1ccc(-c2ccc3c(-c4ccc(C(=O)OC)cc4)n[nH]c3n2)cc1 [APcK-32],–,–,LARGE COMETS,small plaque and large comets; also recorded: small plaques with large comets
CCOC(=O)c1ccc(-c2n[nH]c3nc(-c4ccc5cc[nH]c5c4)ccc23)cc1 [APcK-58],–,NO PLAQUES,–,–
COc1ccccc1NS(=O)(=O)c1cccc(Nc2cc(-c3ccc(NC(=O)CCC(=O)O)cc3)ncn2)c1 [Eph2_wbz 117],Class III,SMALL PLAQUES; COMETS?,NO PLAQUES,–
CCOC(=O)c1ccc(-c2n[nH]c3nc(-c4cc(C)c(O)c(C)c4)ccc23)cc1 [APcK-106],Class III,PINPOINT PLAQUES,SMALLER PLAQUES THAN WT,–
Brc1cnc2c(NCC3CC3)nccn12 [LG2-101],Class III,PINPOINTS,"SMALL PLAQUES, WITH TAILS",–
COc1ccccc1Nc1cc(-c2ccc3[nH]ccc3c2)ncn1 [Eph2_wbz 216],Class III,NO PLAQUES,SLIGHTLY SMALLER PLAQUES,–
Cc1ccc(-n2c(=O)[nH]c3c(C(N)=O)nc(-c4ccc(-c5cccs5)s4)nc32)cc1 [dm-I-184],–,SLIGHTLY SMALLER PLAQUES,–,–
COC(=O)C1(Cc2ccccc2)OC(=O)C(O)=C1c1ccccc1 (stereo not drawn) [butyro- lactones-1],–,–,SMALL PLAQUES WITH LARGE TAILS OR CPE,more plaque formations than wild type; also recorded: more plaques than WT
CC(=O)Nc1cccc(-c2ccc3c(-c4ccc(Cl)cc4Cl)n[nH]c3n2)c1 [APcK-40],Class III,PINPOINT PLAQUES,SLIGHTLY SMALLER PLAQUES,–
CC(=O)Nc1cccc(-c2ccc3c(-c4ccc(F)c(C)c4)n[nH]c3n2)c1 [APcK-102],Class III,NO PLAQUES,SMALLER PLAQUES THAN WT,–
CN(C)CCCNC(=O)/C=C\C(=O)Nc1ccc2ncnc(Nc3cccc(I)c3)c2c1 [JGAP-13],–,–,MORE PLAQUES THAN WT,more plaque formations than wild type; also recorded: more plaques than WT
COc1ccc(-c2nc(C(N)=O)c3[nH]c(=O)n(-c4ccc(C)cc4)c3n2)cc1OC [dm-I-196],Class III,PINPOINTS,"SMALL PLAQUES, NO TAILS",small plaques with no comets; also recorded: smaller (pinpoint) plaques with no comets
Cc1ccc(-c2ccnc(Nc3cc(NC(=O)c4ccc(CN5CCN(C)CC5)cc4)ccc3C)n2)cn1 [WBZ-4],Class II,SMALL PLAQUES,SMALL PLAQUES,–
CCN(CC)CCNC(=O)/C=C\C(=O)Nc1ccc2ncnc(Nc3cccc(I)c3)c2c1 [JGAP-11],–,–,MORE PLAQUES THAN WT,–
COc1ccccc1NS(=O)(=O)c1cccc(Nc2cc(-c3ccc([N+](=O)[O-])cc3)ncn2)c1 [Eph2_wbz 103],Class III,PINPOINT,NO PLAQUES,–
